The text below walks through data of patent US4396626A, “Cyclic compounds and their use” (Beecham Group Limited, priority 1980, dated 1983).

Counter-ions that a name gives are not always drawn.

Test [1] has as its system phenyl-p-quinone writhing in mice. As to the kind of experiment: Analgesic activity: phenyl-p-quinone induced writhing in mice. Type of test: in vivo, male T/O mice. The settings on record: 1 hour prior to phenyl-p-quinone injection, observed 8 minutes, Litchfield and Wilcoxon; for ED50: Mus musculus, po, read-out: ED50 (mice prevented from writhing). The method, then: Groups of 10 male T/O mice weighing between 20 and 25 g were injected intraperitoneally with 0.2 ml of a 0.02% solution of phenyl-p-quinone maintained at 37° C. […] Compounds were administered orally 1 hour prior to phenyl-p-quinone injection. The percentage of mice prevented from writhing in each group was plotted against dose of compound on log probit paper and the ED50 was calculated by the method of Litchfield, J. T. and Wilcoxon, F. (1949), J. Pharmac. exp. Ther., 96 (2), 99-113.

The test system of test [2] is carrageenin-induced oedema in rat paw. As to the kind of experiment: Anti-inflammatory activity: standard rat paw carrageenin-induced oedema test. Type of test: in vivo, male Wistar rats. The settings on record: 1 hr before carrageenin. The method, then: The sodium salt of compound (1) was tested for anti-inflammatory activity by the standard rat paw carrageenin-induced oedema test:
Groups of 8 male Wistar rats weighing between 120 and 165 g. were dosed orally with the compound 1 hr. before the sub-cutaneous injection of 0.1 ml 1.5% carrageenin into a paw to induce oedema. The duration of the oedema was 3-31/2 hr. The significance of results was assessed by Student's `t` test.

For `Cn1c(CC(=O)O)cc(C(F)(F)F)c1C(=O)c1ccc(Cl)cc1` [(1), 5-p-Chlorobenzoyl-1-methyl-4-trifluoromethylpyrrole-2-acetic acid], in test [1], the ED50 (as a rule, the midpoint of the dose-response relation) stood at 1.75 mg/kg.
Still for that read-out and setting: as for `CC(=O)CCc1cc(C(F)(F)F)c(C(=O)c2ccc(Cl)cc2)n1C` [(13), 4-[5'-(4"-chlorobenzoyl)-1'-methyl-4'-trifluoromethyl-2'-pyroyl]butan-2-one], the figure is 25 mg/kg.
Take `Cn1c(CC(=O)O)cc(C(F)(F)F)c1C(=O)c1ccc(Cl)cc1` [sodium salt of compound (1)]: the “ED50 (mice prevented from writhing)” value in test [1] (oral, listed as No salt thereof) came to 1.6 mg/kg p.o. The “% inhibition of oedema w.r.t. methylcellulose control” value in test [2] (1.67 mg/kg p.o., *0.001 < p < 0.01) amounted to 18%; in test [2] (5 mg/kg p.o., **p < 0.001) it was 25%; in test [2] (15 mg/kg p.o., **p < 0.001), 30%. In addition, in test [2] (rat, oral, read-out: ED25 (inhibition of oedema)), the ED25 came to 5.5 mg/kg.
